For 38 compounds, IC50 results are on record in patent US10047096B2, “Substituted pyridobenzodiazepinone-derivatives and use thereof” (Bayer Pharma Aktiengesellschaft, priority 2014, dated 2018).

Structures are written as SMILES. Counter-ions that a name gives are not always drawn.

In the first experiment the target is human PDGFRβ (Homo sapiens (Human), UniProt P09619). The experiment is described as follows: PDGFRβ kinase assay (PDGFRβ-HTRF). The class given is biochemical.
Chain of human PDGFRβ (P09619 561-1106): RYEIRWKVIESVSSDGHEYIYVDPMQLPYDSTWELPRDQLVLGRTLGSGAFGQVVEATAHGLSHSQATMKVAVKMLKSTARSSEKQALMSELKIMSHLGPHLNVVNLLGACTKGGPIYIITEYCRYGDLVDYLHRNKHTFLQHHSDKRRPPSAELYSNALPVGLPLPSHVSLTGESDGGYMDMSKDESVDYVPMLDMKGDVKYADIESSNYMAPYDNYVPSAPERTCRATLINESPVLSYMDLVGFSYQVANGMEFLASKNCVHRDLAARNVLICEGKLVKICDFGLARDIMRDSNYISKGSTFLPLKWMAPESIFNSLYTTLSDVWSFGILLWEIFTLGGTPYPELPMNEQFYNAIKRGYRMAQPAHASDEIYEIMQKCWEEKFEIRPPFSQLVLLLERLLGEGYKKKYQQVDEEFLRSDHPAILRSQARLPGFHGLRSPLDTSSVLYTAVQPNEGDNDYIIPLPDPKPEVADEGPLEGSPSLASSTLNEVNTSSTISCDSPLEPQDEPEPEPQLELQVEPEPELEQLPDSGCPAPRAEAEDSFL
Settings: not given
The procedure, abridged: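 GST-fused human PDGFRβ fragment (R561-L1106) from Sf9 cells was preincubated 15 min with compound in 50 mM HEPES pH 7.5, 10 mM MgCl2, 2.5 mM DTT, 0.01% Triton X-100; substrate was biotinylated poly-Glu,Tyr (4:1).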
On to `Cc1ccc(O)cc1Nc1ccnc2c1C(=O)Nc1cc(CN3CCOCC3)ccc1N2` [Example 41, 4-[(5-Hydroxy-2-methylphenyl)amino]-8-(morpholin-4-ylmethyl)-6,11-dihydro-5H-pyrido[2,3-b][1,5]benzodiazepin-5-one formic acid salt], for which the IC50 (as a rule, the concentration that gives 50% inhibition) turned out to be 3.72 nM.

Still in this experiment, the particulars now being: 10 μM ATP; some mean values from multiple determinations.
Take `Cc1cc(F)c(Nc2ccnc3c2C(=O)Nc2cc(CN4CCN(CCO)CC4)ccc2N3)cc1O` [Example 47, 4-[(2-Fluoro-5-hydroxy-4-methylphenyl)amino]-8-{[4-(2-hydroxyethyl)piperazin-1-yl]methyl}-6,11-dihydro-5H-pyrido[2,3-b][1,5]benzodiazepin-5-one]: the IC50 turned out to be 3.67 nM.

For the compound `Cc1ccc(O)cc1Nc1ccnc2c1C(=O)Nc1cc(CNCC(C)N3CCOCC3)ccc1N2` (centres unmarked) [Example 135], inhibition was half-maximal at 5.74 nM (IC50).

The compound `CNCc1ccc2c(c1)NC(=O)c1c(Nc3cc(O)ccc3C)ccnc1N2` [Example 22, 4-[(5-Hydroxy-2-methylphenyl)amino]-8-[(methylamino)methyl]-6,11-dihydro-5H-pyrido[2,3-b][1,5]benzodiazepin-5-one] came in with an IC50 of 2.84 nM.

In turn, `Cc1cc(F)c(Nc2ccnc3c2C(=O)Nc2cc(CNC(C)C4CCCCC4)ccc2N3)cc1O` (racemic) [Example 77, rac-8-{[(1-Cyclohexylethyl)amino]methyl}-4-[(2-fluoro-5-hydroxy-4-methylphenyl)amino]-6,11-dihydro-5H-pyrido[2,3-b][1,5]benzodiazepin-5-one] displayed an IC50 of 4.9 nM.

The compound `Cc1ccc(O)cc1Nc1ccnc2c1C(=O)Nc1cc(CNCCOCC3CCCO3)ccc1N2` (centres unmarked) [Example 133] had an IC50 of 7.53 nM.

`Cc1ccc(O)cc1Nc1ccnc2c1C(=O)Nc1cc(CNCCF)ccc1N2` [Example 126] displayed a half-maximal inhibitory concentration (IC50) of 2.24 nM.

`CCC(C)CNCc1ccc2c(c1)NC(=O)c1c(Nc3cc(O)ccc3C)ccnc1N2` (centres unmarked) [Example 153] showed a half-maximal inhibitory concentration (IC50) of 3.61 nM.

In turn, `Cc1cc(F)c(Nc2ccnc3c2C(=O)Nc2cc(CNCCO)ccc2N3)cc1O` [Example 167, 4-[(2-Fluoro-5-hydroxy-4-methylphenyl)amino]-8-{[(2-hydroxyethyl)amino]methyl}-6,11-dihydro-5H-pyrido[2,3-b][1,5]benzodiazepin-5-one] had an IC50 of 1.31 nM.

As for `Cc1ccc(O)cc1Nc1ccnc2c1C(=O)Nc1cc(CNCCO)ccc1N2` [Example 24, 8-{[(2-Hydroxyethyl)amino]methyl}-4-[(5-hydroxy-2-methylphenyl)amino]-6,11-dihydro-5H-pyrido[2,3-b][1,5]benzodiazepin-5-one], inhibition was half-maximal at 4.74 nM (IC50).

Compound `Cc1ccc(O)cc1Nc1ccnc2c1C(=O)Nc1cc(CNC(C)c3ccco3)ccc1N2` (centres unmarked) [Example 132] displayed an IC50 of 2.89 nM.

`N#Cc1ccc2c(c1)NC(=O)c1c(Nc3cc(O)c(F)c(F)c3)ccnc1N2` [Example 8, 4-[(3,4-Difluoro-5-hydroxyphenyl)amino]-5-oxo-6,11-dihydro-5H-pyrido[2,3-b][1,5]benzodiazepine-8-carbonitrile] showed an IC50 of 4.76 nM.

As to `CCCCNCc1ccc2c(c1)NC(=O)c1c(Nc3cc(O)ccc3C)ccnc1N2` [Example 23, 8-[(Butylamino)methyl]-4-[(5-hydroxy-2-methylphenyl)amino]-6,11-dihydro-5H-pyrido[2,3-b][1,5]benzodiazepin-5-one], half-maximal inhibition (IC50) was put at 2.98 nM.

For `Cc1ccc(O)cc1Nc1ccnc2c1C(=O)Nc1cc(CNCCN3CCCCCC3)ccc1N2` [Example 111], the IC50 was determined as 4.03 nM.

As to `Cc1cc(F)c(Nc2ccnc3c2C(=O)Nc2cc(CN4CCC(C)(C)CC4)ccc2N3)cc1O` [Example 56, 8-[(4,4-Dimethylpiperidin-1-yl)methyl]-4-[(2-fluoro-5-hydroxy-4-methylphenyl)amino]-6,11-dihydro-5H-pyrido[2,3-b][1,5]benzodiazepin-5-one], half-maximal inhibition (IC50) required 1.49 nM.

For `CCCNCc1ccc2c(c1)NC(=O)c1c(Nc3cc(O)ccc3C)ccnc1N2` [Example 125], the IC50 was determined as 1.97 nM.

For `Cc1ccc(O)cc1Nc1ccnc2c1C(=O)Nc1cc(CNCCCCO)ccc1N2` [Example 17, 8-{[(4-Hydroxybutyl)amino]methyl}-4-[(5-hydroxy-2-methylphenyl)amino]-6,11-dihydro-5H-pyrido[2,3-b][1,5]benzodiazepin-5-one], the IC50 was 5.63 nM.

Regarding `N#Cc1ccc2c(c1)NC(=O)c1c(Nc3cccc(O)c3)ccnc1N2` [Example 35, 4-[(3-Hydroxyphenyl)amino]-5-oxo-6,11-dihydro-5H-pyrido[2,3-b][1,5]benzodiazepine-8-carbonitrile], it took 12.6 nM to reach half-maximal inhibition (IC50).

As for `COCCCNCc1ccc2c(c1)NC(=O)c1c(Nc3cc(O)ccc3C)ccnc1N2` [Example 129], the IC50 stood at 3.99 nM.

Compound `N#Cc1ccc2c(c1)NC(=O)c1c(Nc3ccc(Cl)c(O)c3)ccnc1N2` [Example 11, 4-[(4-Chloro-3-hydroxyphenyl)amino]-5-oxo-6,11-dihydro-5H-pyrido[2,3-b][1,5]benzodiazepine-8-carbonitrile] yielded an IC50 of 4.03 nM.

In the case of `CCN1CCCC1CNCc1ccc2c(c1)NC(=O)c1c(Nc3cc(O)ccc3C)ccnc1N2` (centres unmarked) [Example 92, 8-({[(1-Ethylpyrrolidin-2-yl)methyl]amino}methyl)-4-[(5-hydroxy-2-methylphenyl)amino]-6,11-dihydro-5H-pyrido[2,3-b][1,5]benzodiazepin-5-one], the IC50 is 5.27 nM.

For the compound `Cc1cc(F)c(Nc2ccnc3c2C(=O)Nc2cc(CN4CCC5(O)CCCCC5C4)ccc2N3)cc1O` (centres unmarked) [Example 183, 4-[(2-Fluoro-5-hydroxy-4-methylphenyl)amino]-8-[(4a-hydroxyoctahydroisoquinolin-2(1H)-yl)methyl]-6,11-dihydro-5H-pyrido[2,3-b][1,5]benzodiazepin-5-one], the IC50 stood at 1.2 nM.

Compound `Cc1cc(F)c(Nc2ccnc3c2C(=O)Nc2cc(C#N)ccc2N3)cc1O` [Example 27, 4-[(2-Fluoro-5-hydroxy-4-methylphenyl)amino]-5-oxo-6,11-dihydro-5H-pyrido[2,3-b][1,5]benzodiazepine-8-carbonitrile] returned an IC50 of 15.3 nM.

In the case of `CCC(CC)NCc1ccc2c(c1)NC(=O)c1c(Nc3cc(O)ccc3C)ccnc1N2` [Example 155], the IC50 was 2.33 nM.

Take `Cc1cc(F)c(Nc2ccnc3c2C(=O)Nc2cc(CNC4CC(F)(F)C4)ccc2N3)cc1O` [Example 189, 8-{[(3,3-Difluorocyclobutyl)amino]methyl}-4-[(2-fluoro-5-hydroxy-4-methylphenyl)amino]-6,11-dihydro-5H-pyrido[2,3-b][1,5]benzodiazepin-5-one]: the IC50 was 2.01 nM.

For `Cc1ccc(O)cc1Nc1ccnc2c1C(=O)Nc1cc(CNCC(N)=O)ccc1N2` [Example 16, N^2-({4-[(5-Hydroxy-2-methylphenyl)amino]-5-oxo-6,11-dihydro-5H-pyrido[2,3-b][1,5]benzodiazepin-8-yl}methyl)glycinamide], the midpoint of inhibition, the IC50, lay at 7.05 nM.

`Cc1cc(F)c(Nc2ccnc3c2C(=O)Nc2cc(CN(C)C[C@@H](C)O)ccc2N3)cc1O` [Example 201, 4-[(2-Fluoro-5-hydroxy-4-methylphenyl)amino]-8-({[(2R)-2-hydroxypropyl](methyl)amino}methyl)-6,11-dihydro-5H-pyrido[2,3-b][1,5]benzodiazepin-5-one] returned an IC50 of 1.35 nM.

In the case of `Cc1cc(F)c(Nc2ccnc3c2C(=O)Nc2cc(CN(C)C)ccc2N3)cc1O` [Example 33, 8-[(Dimethylamino)methyl]-4-[(2-fluoro-5-hydroxy-4-methylphenyl)amino]-6,11-dihydro-5H-pyrido[2,3-b][1,5]benzodiazepin-5-one], half-maximal inhibition (IC50) required 4.3 nM.

`Cc1ccc(O)cc1Nc1ccnc2c1C(=O)Nc1cc(CNCCN3CCN(C)CC3)ccc1N2` [Example 109] gave an IC50 of 3.55 nM.

For the compound `CCN(CC)CC(C)NCc1ccc2c(c1)NC(=O)c1c(Nc3cc(O)ccc3C)ccnc1N2` (centres unmarked) [Example 112], 2.34 nM corresponded to half-maximal inhibition (IC50).

`Cc1cc(F)c(Nc2ccnc3c2C(=O)Nc2cc(CNC4CC(OC(C)C)C4)ccc2N3)cc1O` (centres unmarked) [Example 190, 4-[(2-Fluoro-5-hydroxy-4-methylphenyl)amino]-8-{[(3-isopropoxycyclobutyl)amino]methyl}-6,11-dihydro-5H-pyrido[2,3-b][1,5]benzodiazepin-5-one] had a 50% inhibitory concentration (IC50) of 1.22 nM.

For the compound `Cc1ccc(O)cc1Nc1ccnc2c1C(=O)Nc1cc(CNC[C@H](C)c3ccccc3)ccc1N2` [Example 117], inhibition was half-maximal at 3.46 nM (IC50).

`CCOC1CCCN(Cc2ccc3c(c2)NC(=O)c2c(Nc4cc(O)c(C)cc4F)ccnc2N3)C1` (racemic) [Example 67, rac-8-[(3-Ethoxypiperidin-1-yl)methyl]-4-[(2-fluoro-5-hydroxy-4-methylphenyl)amino]-6,11-dihydro-5H-pyrido[2,3-b][1,5]benzodiazepin-5-one]: the IC50 was 2.23 nM.

For the compound `CCC(CC)CNCc1ccc2c(c1)NC(=O)c1c(Nc3cc(O)ccc3C)ccnc1N2` [Example 93], the midpoint of inhibition, the IC50, lay at 4.98 nM.

Regarding `Cc1cc(F)c(Nc2ccnc3c2C(=O)Nc2cc(CNCCc4ccncc4)ccc2N3)cc1O` [Example 74, 4-[(2-Fluoro-5-hydroxy-4-methylphenyl)amino]-8-({[2-(pyridin-4-yl)ethyl]amino}methyl)-6,11-dihydro-5H-pyrido[2,3-b][1,5]benzodiazepin-5-one], half-maximal inhibition (IC50) required 0.475 nM.

Compound `Cc1ccc(O)cc1Nc1ccnc2c1C(=O)Nc1cc(CNCC(O)CO)ccc1N2` (centres unmarked) [Example 148] returned an IC50 of 1.52 nM.

As for `Cc1ccc(O)cc1Nc1ccnc2c1C(=O)Nc1cc(CN3CCCC3)ccc1N2` [Example 40, 4-[(5-Hydroxy-2-methylphenyl)amino]-8-(pyrrolidin-1-ylmethyl)-6,11-dihydro-5H-pyrido[2,3-b][1,5]benzodiazepin-5-one], it took 1.8 nM to reach half-maximal inhibition (IC50).

Regarding `N#Cc1ccc2c(c1)NC(=O)c1c(Nc3cc(O)ccc3Cl)ccnc1N2` [Example 36, 4-[(2-Chloro-5-hydroxyphenyl)amino]-5-oxo-6,11-dihydro-5H-pyrido[2,3-b][1,5]benzodiazepine-8-carbonitrile], 20.1 nM corresponded to half-maximal inhibition (IC50).
